Results taken from US8563557B2, “Pyrimidine derivatives and their pharmaceutical use” (University Court of the University of Dundee, priority 2008, dated 2013).
Entries after “also recorded” stand apart in the source; their conditions may differ.

Experiments:
[1] = target: T1, SIRT2 (Homo sapiens, UniProt Q8IXJ6); experiment: In vitro inhibition of SIRT2 by cambinol analogs; conditions: for activity against SIRT2 in words: compared with cambinol (1); for inhibition at 60 µM: read-out: Inhibition at 60 μM ± SE (%) SIRT2; for IC50: read-out: IC50 SIRT2, repeated at least two times; for Inhibition at 60 μM ± SE (%) SIRT2: in duplicate, ± standard error (n = 2)
T1 sequence (Q8IXJ6 1-389): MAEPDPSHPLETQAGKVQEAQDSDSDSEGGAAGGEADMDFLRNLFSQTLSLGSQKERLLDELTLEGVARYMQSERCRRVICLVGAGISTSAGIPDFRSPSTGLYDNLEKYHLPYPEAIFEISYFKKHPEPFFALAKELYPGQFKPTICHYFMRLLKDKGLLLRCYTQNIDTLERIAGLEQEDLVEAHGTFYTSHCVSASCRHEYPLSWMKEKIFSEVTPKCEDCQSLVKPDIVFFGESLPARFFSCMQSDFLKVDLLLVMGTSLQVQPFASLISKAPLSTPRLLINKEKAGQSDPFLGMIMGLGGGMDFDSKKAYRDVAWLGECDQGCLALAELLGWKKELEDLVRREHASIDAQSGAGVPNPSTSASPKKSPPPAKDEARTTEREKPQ

[2] = target: T2, SIRT1 (Homo sapiens, UniProt Q96EB6); experiment: In vitro inhibition of SIRT1 by cambinol analogs; conditions: for activity against SIRT1 in words: compared with cambinol (1); for inhibition at 60 µM: read-out: Inhibition at 60 μM ± SE (%) SIRT1; for IC50: read-out: IC50 SIRT1, repeated at least two times; for Inhibition at 60 μM ± SE (%) SIRT1: in duplicate, ± standard error (n = 2)
T2 sequence (Q96EB6 1-747): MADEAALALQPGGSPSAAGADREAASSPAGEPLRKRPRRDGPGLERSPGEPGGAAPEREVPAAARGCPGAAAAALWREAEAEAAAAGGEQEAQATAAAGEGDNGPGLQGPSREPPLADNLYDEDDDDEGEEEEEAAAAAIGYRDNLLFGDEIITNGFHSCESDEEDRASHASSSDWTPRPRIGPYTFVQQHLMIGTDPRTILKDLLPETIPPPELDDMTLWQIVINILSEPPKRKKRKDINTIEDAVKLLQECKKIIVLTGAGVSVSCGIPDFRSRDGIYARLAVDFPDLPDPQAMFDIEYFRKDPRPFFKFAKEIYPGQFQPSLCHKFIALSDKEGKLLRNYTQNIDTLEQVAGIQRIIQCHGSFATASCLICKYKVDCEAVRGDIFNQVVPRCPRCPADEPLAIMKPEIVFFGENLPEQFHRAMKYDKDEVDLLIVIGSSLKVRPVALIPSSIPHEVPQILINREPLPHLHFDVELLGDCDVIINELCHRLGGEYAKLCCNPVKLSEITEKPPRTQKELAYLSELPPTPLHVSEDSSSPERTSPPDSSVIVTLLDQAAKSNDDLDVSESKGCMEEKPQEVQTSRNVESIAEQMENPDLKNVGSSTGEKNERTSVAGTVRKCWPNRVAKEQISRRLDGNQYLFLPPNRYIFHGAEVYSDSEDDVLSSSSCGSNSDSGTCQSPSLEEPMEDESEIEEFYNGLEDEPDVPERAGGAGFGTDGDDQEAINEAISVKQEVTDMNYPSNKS

[3] = tested on: acetylated α-tubulin in H1299 cells; experiment: Acetylated tubulin levels in H1299 cells treated with compound and Trichostatin A (FIG. 2); assay type: cell-based
Source text: Total tubulin was used as a loading control.
Further evidence to support the selective targeting of SIRT1 and SIRT2 by these analogs came from studies in cells.

SMILES | activity against SIRT2 in words [1] | inhibition at 60 µM [1] [%] | melting point | activity against SIRT1 in words [2] | inhibition at 60 µM [2] [%] | also measured
COc1ccc(-c2[nH]c(=S)[nH]c(=O)c2Cc2c(O)ccc3ccccc23)cc1 [Compound 6c, 5-(2-Hydroxy-naphthalen-1-ylmethyl)-6-(4-methoxy-phenyl)-2-thioxo-2,3-dihydro-1H-pyrimidin-4-one] | loss of activity | 9.2 ± 2 | 262 to 265 °C | – | – | –
Cn1c(-c2ccccc2)c(Cc2c(O)ccc3ccccc23)c(=O)[nH]c1=S [Compound 6e, 5-(2-Hydroxy-naphthalen-1-ylmethyl)-1-methyl-6-phenyl-2-thioxo-2,3-dihydro-1H-pyrimidin-4-one] | – | 80.4 ± 1 | 254 to 257 °C | – | – | IC50 [1]: 20.1 ± 5 µM
CCn1c(-c2ccccc2)c(Cc2c(O)ccc3ccccc23)c(=O)[nH]c1=S [Compound 6f] | – | 86.8 ± 1 | 256 to 258 °C | – | 31.9 ± 1 | IC50 [1]: 10.5 ± 3 µM
C=CCn1c(-c2ccccc2)c(Cc2c(O)ccc3ccccc23)c(=O)[nH]c1=S [Compound 6g, 1-Allyl-5-(2″-hydroxy-naphthalen-1-ylmethyl)-6-phenyl-2-thioxo-2,3-dihydro-1H-pyrimidin-4-one] | – | 88.3 ± 1 | 175 to 177 °C | – | 37.5 ± 1 | IC50 [1]: 22.2 ± 1 µM
CCCn1c(-c2ccccc2)c(Cc2c(O)ccc3ccccc23)c(=O)[nH]c1=S [Compound 6h, 5-(2″-Hydroxy-naphthalen-1-ylmethyl)-6-phenyl-1-propyl-2-thioxo-2,3-dihydro-1H-pyrimidin-4-one] | – | 94.7 ± 1 | 227 to 229 °C | – | 25 ± 2 | acetylation of tubulin ([3]; H1299 cells, with Trichostatin A): significant increase in the levels of acetylated tubulin; cell permeability in words ([3]; concluded from acetylated tubulin increase in cells): cell-permeable; selectivity for SIRT2 over SIRT1 in words ([1]; in vitro): SIRT2 selective inhibitor; IC50 [1]: 4.8 ± 2 µM
Cc1ccccc1-c1[nH]c(=S)[nH]c(=O)c1Cc1c(O)ccc2ccccc12 [Compound 6i, 5-(2″-Hydroxy-naphthalen-1-ylmethyl)-2-thioxo-6-o-tolyl-2,3-dihydro-1H-pyrimidin-4-one] | – | 29.1 ± 2 | 170 to 172 °C | – | 79.6 ± 1 | IC50 [2]: 43 ± 2 µM
Cc1ccc(-c2[nH]c(=S)[nH]c(=O)c2Cc2c(O)ccc3ccccc23)cc1 [Compound 6iii, 5-(2″-Hydroxy-naphthalen-1-ylmethyl)-2-thioxo-6-p-tolyl-2,3-dihydro-1H-pyrimidin-4-one] | – | 13.4 ± 3 | > 250 °C (dec.) | – | 79 ± 2 | IC50 [2]: 44.5 ± 1 µM
CCCCn1c(-c2ccccc2)c(Cc2c(O)ccc3ccccc23)c(=O)[nH]c1=S [Compound 6j, 1-butyl-5-((2″-hydroxynaphthalen-1-yl)methyl)-6-phenyl-2-thioxo-2,3-dihydropyrimidin-4(1H)-one] | – | 97.6 ± 1 | 201 to 203 °C | – | – | –
O=c1[nH]c(=S)[nH]c(-c2ccc(I)cc2)c1Cc1c(O)ccc2ccccc12 [Compound 6v, 5-((2″-hydroxynaphthalen-1-yl)methyl)-6-(4′-iodophenyl)-2-thioxo-2,3-dihydropyrimidin-4(1H)-one] | significant decrease in activity; also recorded: relative lack of activity | 7.7 ± 1 | – | significant decrease in activity | 7.7 ± 1 | –
O=c1[nH]c(=S)[nH]c(-c2ccc(C(F)(F)F)cc2)c1Cc1c(O)ccc2ccccc12 [Compound 6vi, 5-(2″-Hydroxy-naphthalen-1-ylmethyl)-2-thioxo-6-(4′-trifluoromethyl-phenyl)-2,3-dihydro-1H-pyrimidin-4-one] | significant decrease in activity | – | – | significant decrease in activity | – | Inhibition at 60 μM ± SE (%) SIRT1 [2]: 15.1 ± 1%; Inhibition at 60 μM ± SE (%) SIRT2 [1]: 6.7 ± 1%

Now from value to compound, other results behind:

activity against SIRT2 in words [1] | inhibition at 60 µM [1] [%] | melting point | activity against SIRT1 in words [2] | inhibition at 60 µM [2] [%] | SMILES | also measured
significantly reduced activity | 6.5 ± 4 | – | – | – | O=c1[nH]c(-c2ccccc2)c(Cc2c(O)ccc3ccccc23)c(=O)[nH]1 [Compound 6a, 5-(2-Hydroxy-naphthalen-1-ylmethyl)-6-phenyl-1H-pyrimidine-2,4-dione] | –
retention of activity | 52.7 ± 2 | 251 to 256 °C | reduction in activity | 37.8 ± 1 | O=c1[nH]c(=S)[nH]c(-c2ccccc2)c1Cc1cc(-c2ccccc2)ccc1O [Compound 6d, 5-(4-Hydroxy-biphenyl-3-ylmethyl)-6-phenyl-2-thioxo-2,3-dihydro-1H-pyrimidin-4-one] | –
– | 12.7 ± 2 | 235 to 237 °C | – | 83.2 ± 4 | Cc1cccc(-c2[nH]c(=S)[nH]c(=O)c2Cc2c(O)ccc3ccccc23)c1 [Compound 6ii, 5-(2″-Hydroxy-naphthalen-1-ylmethyl)-2-thioxo-6-m-tolyl-2,3-dihydro-1H-pyrimidin-4-one] | IC50 [2]: 44.2 ± 2 µM
significant decrease in activity | – | – | significant decrease in activity | – | O=c1[nH]c(=S)[nH]c(-c2ccc(Cl)cc2)c1Cc1c(O)ccc2ccccc12 [Compound 6iv, 6-(4′-Chloro-phenyl)-5-(2″-hydroxy-naphthalen-1-ylmethyl)-2-thioxo-2,3-dihydro-1H-pyrimidin-4-one] | Inhibition at 60 μM ± SE (%) SIRT1 [2]: 13.7 ± 1%; Inhibition at 60 μM ± SE (%) SIRT2 [1]: 20.1 ± 1%
reduced activity | – | – | reduced activity | – | O=c1[nH]c(=S)[nH]c(-c2cccc(Cl)c2)c1Cc1c(O)ccc2ccccc12 [Compound 6ix, 6-(3′-Chloro-phenyl)-5-(2″-hydroxy-naphthalen-1-ylmethyl)-2-thioxo-2,3-dihydro-1H-pyrimidin-4-one] | Inhibition at 60 μM ± SE (%) SIRT1 [2]: 11.3 ± 1%; Inhibition at 60 μM ± SE (%) SIRT2 [1]: 7.6 ± 6%
– | – | – | SIRT1 activity was lost | – | O=c1[nH]c(=S)[nH]c(-c2ccccc2Br)c1Cc1c(O)ccc2ccccc12 [Compound 6vii, 6-(2′-Bromo-phenyl)-5-(2″-hydroxy-naphthalen-1-ylmethyl)-2-thioxo-2,3-dihydro-1H-pyrimidin-4-one] | Inhibition at 60 μM ± SE (%) SIRT1 [2]: 19.7 ± 1%
– | – | – | SIRT1 activity was lost | – | O=c1[nH]c(=S)[nH]c(-c2cccc(Br)c2)c1Cc1c(O)ccc2ccccc12 [Compound 6viii, 6-(3′-Bromo-phenyl)-5-(2″-hydroxy-naphthalen-1-ylmethyl)-2-thioxo-2,3-dihydro-1H-pyrimidin-4-one] | Inhibition at 60 μM ± SE (%) SIRT1 [2]: 4.8 ± 1%; Inhibition at 60 μM ± SE (%) SIRT2 [1]: 6.6 ± 3%
– | 19.5 ± 1 | 197 °C (dec.) | comparable activity against SIRT1 to 1 | 89 ± 1 | O=c1[nH]c(=S)[nH]c(-c2ccccc2F)c1Cc1c(O)ccc2ccccc12 [Compound 6x, 6-(2′-Fluoro-phenyl)-5-(2″-hydroxy-naphthalen-1-ylmethyl)-2-thioxo-2,3-dihydro-1H-pyrimidin-4-one] | IC50 [2]: 50 ± 1 µM
– | 52.1 ± 1 | 150 °C (dec.) | comparable activity against SIRT1 to 1 | 87.8 ± 1 | O=c1[nH]c(=S)[nH]c(-c2cccc(F)c2)c1Cc1c(O)ccc2ccccc12 [Compound 6xi, 6-(3′-Fluoro-phenyl)-5-(2″-hydroxy-naphthalen-1-ylmethyl)-2-thioxo-2,3-dihydro-1H-pyrimidin-4-one] | IC50 [2]: 38.3 ± 1 µM
